Assay results taken from patent US20240239790A1, “7-Morpholino-1,6-Naphthyridin-5-yl Derivatives and Pharmaceutical Compositions Thereof Useful as DNA-PK Inhibitor” (adMare Therapeutics Society, priority 2021, published 2024).
Read-outs that look alike come from different tables or passages of the source.

System: HCT116 tumour spheroids
Assay: Spheroid + radiation colony forming cell survival assay (SF), HCT116
Assay type: cell-based
Conditions: Homo sapiens, HCT-116, 8 Gy
Method: Multicellular tumour spheroids determination of compound inhibition of pDNA-PK induction following radiation. Tumour spheroids were grown to approximately 0.5 mm in diameter and irradiated with 20 Gy in combination with inhibitor test compounds to determine their potency. Inhibitor concentration for 50% reduction in pDNA-PK induction (IC50) was determined via immunohistochemical staining in spheroid cryosections taken 2 hours following radiation. For cell survival endpoint 8 Gy radiation was used and 3 hours following radiation spheroids were dissociated, counted and plated for colony forming endpoint.
Spheroid+radiation colony forming cell survival assay (SF). Radiation 8 Gy. Drug: serial dilution 5 μM down to 10 nM (12 wells×2 repeat). Spheroids: 5-10 spheroids per well (300 to 500 μm diameter). HCT116. 5% 02 and 5% CO2. 96 well pate format for assay. Protocol: pre incubate 1 hour with drug, irradiate 8 Gy, post incubate 3 hrs with drug, dissociate spheroids and count cells and plate for colony forming assay. Endpoint: wait 4-7 days and count colonies. Analysis: determine EC50 concentration that increase cell kill by 50% over radiation alone.
Multicellular tumour spheroids were used to determine potency of test compounds in a 3D tissue environment using inhibition of pDNA-PK induction following radiation or cell survival as the endpoint. For the pDNA-PK endpoint HCT116 or FaDU tumour spheroids were grown to approximately 0.5 mm in diameter and irradiated with 20 Gy in combination with inhibitor test compounds to determine their potency. Experiments were carried out in 96 well plates containing 0.7 mls of MEM media containing 10% FBS and 10 mM glucose under 20% O2 & 5% CO2 at 37° C. Following dilution of compounds 1:1000 from DMSO stocks, compounds were serially diluted from 10 μM down to 3.5 nM and 5-10 spheroids added. 96 well plates were constantly stirred to avoid spheroids settling during the course of the experiment. The inhibitor concentration for 50% reduction in pDNA-PK induction (EC50) was determined via immunohistochemical staining in spheroid cryosections taken 2 hours following radiation using anti-pDNA-PK (ser 2056) and fixed immediately in formalin following sectioning. For cell survival endpoint 8 Gy radiation was used and, 3 hours following radiation, spheroids were dissociated, counted and plated for colony forming endpoint. Data presented in the table compound potency as EC50 [μM].

[1] = plated 3 hours following radiation, Example 9 Study 2, read-out: Spheroid Cell line: HCT116 Colony forming endpoint Surviving Fraction EC50
[2] = spheroids, 5% O2, concentration that increases cell kill by 50% over radiation alone, Example 8, read-out: Cell line: HCT116 Colony forming endpoint Surviving Fraction EC50

Compound	EC50 [1] [µM]	EC50 [2] [µM]
CN(C)C(=O)COc1cnc(N[C@H]2CC[C@@H](Oc3nc(N4CCOCC4)cc4ncccc34)CC2)nc1 [Compound 54, N,N-Dimethyl-2-((2-(((1s,4s)-4-((7-morpholino-1,6-naphthyridin-5-yl)oxy)cyclohexyl)amino)pyrimidin-5-yl)oxy)acetamide]	0.01 to 0.5	0.01 to 0.5
O=C(O)c1cnc2cc(N3CCOCC3)nc(O[C@H]3CC[C@@H](n4ccnc4)CC3)c2c1 [Compound 165, 5-(((1s,4s)-4-(1H-imidazol-1-yl)cyclohexyl)oxy)-7-morpholino-1,6-naphthyridine-3-carboxylic acid]	10 to 100	10 to 100
CS(=O)(=O)NC(=O)c1cnc2cc(N3CCOCC3)nc(O[C@H]3CC[C@@H](n4ccnc4)CC3)c2c1 [Compound 175, 5-(((1s,4s)-4-(1H-imidazol-1-yl)cyclohexyl)oxy)-N-(methylsulfonyl)-7-morpholino-1,6-naphthyridine-3-carboxamide]	10 to 100	10 to 100
CN(C)CCOc1cnc(N[C@H]2CC[C@@H](Oc3nc(N4CCOCC4)cc4ncccc34)CC2)nc1 [Compound 64, 5-(2-(Dimethylamino)ethoxy)-N-((1s,4s)-4-((7-morpholino-1,6-naphthyridin-5-yl)oxy)cyclohexyl)pyrimidin-2-amine]	0.01 to 0.5	0.01 to 0.5
